From patent publication US11946027B2, “Systems and methods for monitoring behavior of cells and/or tissues in culturing media” (Purdue Research Foundation, priority 2019, dated 2024)

What was measured:
[1] = test system: MCF7 cells; assay: Impedimetric cytotoxicity of MCF7 cells on the scaffold system with Dox; format: cell-based; conditions: 30 kHz
Procedure: The scaffold system remained afloat on the medium, wherein the recording electrodes were entirely surrounded with polyimide elastomers. The flexible conductors were ACF cables (HST-9805-210, Elform, Inc., USA) placed on the sponge-like PDMS buoyant member and wired to an external data acquisition system (E4980AL Precision LCR meter, Keysight Technologies, USA) through the air. […] From about 16 hours later, drastic increase of the impedance occurred due to the cell aggregation and continuous proliferation. This tendency was more obvious in the MCF7 cells because the population doubling time of MCF7 cells (about 29 hours) is shorter than that of SKOV3 cells (about 48 hours) and HUVEC cells (about 60 hours). Consistently, the impedance of the MCF7 cells increased proportionally to the cellular density (FIG. 3C).
(§1) The impedance was measured by using an LCR meter (Agilent 4294A, USA) with the voltage (between two adjacent recording electrodes) of about 1 mV for 48 hours at the frequencies of 1, 5, 10, 20, 30, 50, 100, 150, 200 and 250 kHz. The scaffold system was placed in the incubator (5% CO^2, 37° C.; Thermo Scientific, USA) and wired to the LCR meter located outside of the incubator via flexible ACF cables. The data was collected every 2 hours from the scaffold system.

[2] = hydrophilic and water-soluble; Doxorubicin Hydrochloride, Fisher; cited from earlier work
[3] = test system: MCF7 cells; assay: Real-time impedance monitoring in three-layer stacked scaffold seeded with MCF7 cells, Dox introduced on the top; format: cell-based; conditions: 1 mM Dox introduced on the top at 1-day incubation
Procedure: In this configuration, each layer of the scaffold system remains spaced apart a fixed distance of about 5 mm along the perimeter by using spacers made of PDMS.
as §1

[4] = test system: cardiomyocytes; assay: ECG recording of cardiomyocytes on the scaffold in response to norepinephrine; format: cell-based, neonatal mice; conditions: cardiomyocytes at day 8
Text: The beating rate decreased from 288 bpm to 60 bpm and to 36 bpm, whereas the amplitude increased from 66 μV to 83 μV and to 511 μV at day 2, 6, and 8, respectively. The results imply that spontaneous contractions of the individual cells initially occurred, followed by stronger and more synchronized contractions as the cells become more in contact each other. […] A representative microscopy image in FIG. 4C highlights the embedded four-channel-multiplexed sensing electrodes with the cardiomyocytes at day 8 within the domain of 1.4×1.4 mm^2. The results in FIG. 4D indicate the synchronized beating rate (about 0.63 Hz), amplitude (638˜763 μV), and peak width (˜about 0.6 sec). 3D mapping results of the action potentials (FIG. 4E) obtained from the total 48 ECG sensors (4×4 array in each layer) reveal the spontaneous beating activities of the cardiomyocytes at day 2, 6, and 8 without showing any toxic effect.
For cardiomyocyte isolation, primary neonatal mice cardiomyocytes were prepared according to the Pierce Primary Cardiomyocyte Isolation Kit (Thermo Scientific, USA). Briefly, neonatal hearts were isolated from about 1 to 3 days old neonatal mice and placed into separate sterile microcentrifuge tubes containing 500 μL of ice cold Hank's Balanced Salt Solution (HBSS). […]

SMILES | time after drug administration at which impedance started to decrease ([1]; 100 μM Dox introduced at 1-day incubation) [h] | decrease of the impedance ([1]; low drug administration 10 μM) | solubility [2] | rate of impedance decrease following drug administration, bottom layer ([3]; bottom scaffold layer) | rate of impedance decrease following drug administration, middle layer ([3]; middle scaffold layer) | increase of beating rate ([4]; addition of 100 μL of norepinephrine (bitartrate solution 10 μM) into the medium) | time after NE administration to increase of beating rate ([4]; addition of 100 μL of norepinephrine into the medium) [min]
COc1cccc2c1C(=O)c1c(O)c3c(c(O)c1C2=O)C[C@@](O)(C(=O)CO)C[C@@H]3O[C@H]1C[C@H](N)[C@H](O)[C@H](C)O1 [Dox, doxorubicin] | ≤ 4 | no substantial decrease of the impedance | about 50 mg/ml | about 1.6 Ω/hr | about 5.4 Ω/hr |  | 
NC[C@H](O)c1ccc(O)c(O)c1 [norepinephrine] |  |  |  |  |  | nearly two-fold | ≤ 3
